Measured values reported in patent publication US20140303164A1, “THERAPEUTIC COMPOUNDS” (Gilead Sciences, Inc., priority 2013, published 2014).

Tests used:
HIV-IIIb = assay: Test A: Antiviral Assay in MT4 Cells; format: cell-based, HIV-1; conditions: Human immunodeficiency virus 1, IIIB, MT4, 120 h; for inhibition at 0.2 µM: read-out: % inhibition at 0.2 μM; for inhibition at 2 µM: read-out: % inhibition at 2 μM
Experimental: Test A: Antiviral Assay in MT4 Cells
(§1) MT-4 cells were next mixed with HIV-IIIb at an m.o.i of 0.003 for 1 hour, after which time 35 μL of virus/cell mixture (2000 cells) was immediately added to each well containing 40 μL of diluted compound. The plates were then incubated at 37° C. for 5 days. […] Cell lysis was carried out by incubating at room temperature for 10 min and then chemiluminescence was read.

[1] = Test B: Cytotoxicity Assay; format: cell-based; conditions: human, uninfected MT-4 cells, same protocol as Test A
Experimental: as §1
Test B: Cytotoxicity Assay
Compound cytotoxicity and the corresponding CC50 values was determined using the same protocol as described in the antiviral assay (Test A) except that uninfected cells were used.

Row | Structure (SMILES) | inhibition at 0.2 µM (HIV-IIIb) [%] | inhibition at 2 µM (HIV-IIIb) [%] | CC50 at 5 days [1] [µM]
1 | Cn1nc(NS(C)(=O)=O)c2c(Cl)ccc(-c3ccc(C#CC(C)(O)CO)nc3[C@H](Cc3cc(F)cc(F)c3)NC(=O)Cn3nc(C(F)(F)F)c4c3C(F)(F)[C@@H]3C[C@H]43)c21 (stereo partly drawn) [Compound 151, N-((1S)-1-(3-(4-chloro-1-methyl-3-(methylsulfonamido)-1H-indazol-7-yl)-6-(3,4-dihydroxy-3-methylbut-1-yn-1-yl)pyridin-2-yl)-2-(3,5-difluorophenyl)ethyl)-2-((3bS,4aR)-5,5-difluoro-3-(trifluoromethyl)-3b,4,4a,5-tetrahydro-1H-cyclopropa[3,4]cyclopenta[1,2-c]pyrazol-1-yl)acetamide] | 92 | 92 | 25.3
2 | COC(=O)Nc1nn(C)c2c(-c3ccc(C#CC(C)(C)O)nc3[C@H](Cc3cc(F)cc(F)c3)NC(=O)Cn3nc(C(F)F)c4c3C(F)(F)[C@@H]3C[C@H]43)ccc(Cl)c12 [Compound 90D, methyl (4-chloro-7-(2-((S)-1-(2-((3b-S,4aR)-3-(difluoromethyl)-5,5-difluoro-3b,4,4a,5-tetrahydro-1H-cyclopropa[3,4]cyclopenta[1,2-c]pyrazol-1-yl)acetamido)-2-(3,5-difluorophenyl)ethyl)-6-(3-hydroxy-3-methylbut-1-yn-1-yl)pyridin-3-yl)-1-methyl-1H-indazol-3-yl)carbamate] | 97 | 97 | 7.62
3 | Cn1nc(NCC#N)c2c(Cl)ccc(-c3ccc(C#CC(C)(C)O)nc3[C@H](Cc3cc(F)cc(F)c3)NC(=O)Cn3nc(C(F)F)c4c3C(F)(F)[C@@H]3C[C@H]43)c21 [Compound 93, N—((S)-1-(3-(4-chloro-3-((cyanomethyl)amino)-1-methyl-1H-indazol-7-yl)-6-(3-hydroxy-3-methylbut-1-yn-1-yl)pyridin-2-yl)-2-(3,5-difluorophenyl)ethyl)-2-((3b-S,4aR)-3-(difluoromethyl)-5,5-difluoro-3b,4,4a,5-tetrahydro-1H-cyclopropa[3,4]cyclopenta[1,2-c]pyrazol-1-yl)acetamide] | 92 | 92 | 4.81
4 | Cn1nc(NS(C)(=O)=O)c2cccc(-c3cnc([C@H](Cc4cc(F)cc(F)c4)NC(=O)Cn4nc(C(F)F)c5c4C(F)(F)[C@@H]4C[C@H]54)c(-c4cccc5c(NS(C)(=O)=O)nn(C)c45)n3)c21 [Compound 146I, N—((S)-1-(3,5-bis(1-methyl-3-(methylsulfonamido)-1H-indazol-7-yl)pyrazin-2-yl)-2-(3,5-difluorophenyl)ethyl)-2-((3b-S,4aR)-3-(difluoromethyl)-5,5-difluoro-3b,4,4a,5-tetrahydro-1H-cyclopropa[3,4]cyclopenta[1,2-c]pyrazol-1-yl)acetamide] |  |  | 33.5
5 | Cn1nc(NS(C)(=O)=O)c2c(Cl)ccc(-c3ccc(C#CC(C)(C)O)nc3[C@H](Cc3cc(F)cc(F)c3)NC(=O)Cn3nc(C(=O)O)c4c3C(F)(F)[C@@H]3C[C@H]43)c21 [Compound 147, (3bS,4aR)-1-(2-(((S)-1-(3-(4-chloro-1-methyl-3-(methylsulfonamido)-1H-indazol-7-yl)-6-(3-hydroxy-3-methylbut-1-yn-1-yl)pyridin-2-yl)-2-(3,5-difluorophenyl)ethyl)amino)-2-oxoethyl)-5,5-difluoro-3b,4,4a,5-tetrahydro-1H-cyclopropa[3,4]cyclopenta[1,2-c]pyrazole-3-carboxylic acid] |  |  | > 53.2
6 | Cn1nc(NS(=O)(=O)C(F)(F)F)c2c(Cl)ccc(-c3ccc(C#CC(C)(C)O)nc3[C@H](Cc3cc(F)cc(F)c3)NC(=O)Cn3nc(C(F)F)c4c3C(F)(F)[C@@H]3C[C@H]43)c21 [Compound 171D, N—((S)-1-(3-(4-chloro-1-methyl-3-(trifluoromethylsulfonamido)-1H-indazol-7-yl)-6-(3-hydroxy-3-methylbut-1-yn-1-yl)pyridin-2-yl)-2-(3,5-difluorophenyl)ethyl)-2-((3b-S,4aR)-3-(difluoromethyl)-5,5-difluoro-3b,4,4a,5-tetrahydro-1H-cyclopropa[3,4]cyclopenta[1,2-c]pyrazol-1-yl)acetamide] |  |  | > 42.5
7 | C#Cc1ccc(-c2ccc(Cl)c3cnn(C)c23)c([C@H](Cc2cc(F)cc(F)c2)NC(=O)Cn2nc(C(F)F)c3c2C(F)(F)[C@@H]2C[C@H]32)n1 [Compound 136D, N—((S)-1-(3-(4-chloro-1-methyl-1H-indazol-7-yl)-6-ethynylpyridin-2-yl)-2-(3,5-difluorophenyl)ethyl)-2-((3b-S,4aR)-3-(difluoromethyl)-5,5-difluoro-3b,4,4a,5-tetrahydro-1H-cyclopropa[3,4]cyclopenta[1,2-c]pyrazol-1-yl)acetamide] |  |  | 7.43
8 | Cn1nc(N[S+](C)[O-])c2c(Cl)ccc(-c3ccc(C#CC(C)(C)O)nc3[C@H](Cc3cc(F)cc(F)c3)NC(=O)Cn3nc(C(F)F)c4c3C(F)(F)[C@@H]3C[C@H]43)c21 (stereo partly drawn) [Compound 180C, N-((1S)-1-(3-(4-chloro-1-methyl-3-(methylsulfinamido)-1H-indazol-7-yl)-6-(3-hydroxy-3-methylbut-1-yn-1-yl)pyridin-2-yl)-2-(3,5-difluorophenyl)ethyl)-2-((3b-S,4aR)-3-(difluoromethyl)-5,5-difluoro-3b,4,4a,5-tetrahydro-1H-cyclopropa[3,4]cyclopenta[1,2-c]pyrazol-1-yl)acetamide] | 100 | 100 | 
9 | O=C(Cn1nc(C(F)F)c2c1C(F)(F)CCC2(F)F)N[C@@H](Cc1cc(F)cc(F)c1)c1nc(-c2ccc3c(c2)C(=O)NC3)ccc1-c1ccc2c(c1)C(=O)NC2 [Compound 6, (S)—N-(1-(3,6-bis(3-oxoisoindolin-5-yl)pyridin-2-yl)-2-(3,5-difluorophenyl)ethyl)-2-(3-(difluoromethyl)-4,4,7,7-tetrafluoro-4,5,6,7-tetrahydro-1H-indazol-1-yl)acetamide] | 5 |  | 
10 | Cn1nc(NS(C)(=O)=O)c2c(Cl)ccc(-c3ccc(C#CC(C)(C)N)nc3[C@H](Cc3cc(F)cc(F)c3)NC(=O)Cn3nc(C(F)F)c4c3C(F)(F)[C@@H]3C[C@H]43)c21 [Compound 127, N—((S)-1-(6-(3-amino-3-methylbut-1-yn-1-yl)-3-(4-chloro-1-methyl-3-(methylsulfonamido)-1H-indazol-7-yl)pyridin-2-yl)-2-(3,5-difluorophenyl)ethyl)-2-((3bS,4aR)-3-(difluoromethyl)-5,5-difluoro-3b,4,4a,5-tetrahydro-1H-cyclopropa[3,4]cyclopenta[1,2-c]pyrazol-1-yl)acetamide] | 92 | 92 | 
11 | CC(C)(O)C#Cc1cnc([C@H](Cc2cc(F)cc(F)c2)NC(=O)Cn2nc(C(F)F)c3c2C(F)(F)CCC3(F)F)c(-c2ccc3c(c2)C(=O)NC3)c1 [Compound 4H, (S)-2-(3-(difluoromethyl)-4,4,7,7-tetrafluoro-4,5,6,7-tetrahydro-1H-indazol-1-yl)-N-(2-(3,5-difluorophenyl)-1-(5-(3-hydroxy-3-methylbut-1-ynyl)-3-(3-oxoisoindolin-5-yl)pyridin-2-yl)ethyl)acetamide] | 8 |  | 
12 | O=C(Cn1nc(C(F)F)c2c1C(F)(F)CCC2(F)F)N[C@@H](Cc1cc(F)cc(F)c1)c1ncc(-c2cnc3[nH]ccc3c2)cc1-c1cnc2[nH]ccc2c1 [Compound 11, (S)—N-(1-(3,5-di(1H-pyrrolo[2,3-b]pyridin-5-yl)pyridin-2-yl)-2-(3,5-difluorophenyl)ethyl)-2-(3-(difluoromethyl)-4,4,7,7-tetrafluoro-4,5,6,7-tetrahydro-1H-indazol-1-yl)acetamide] | 3 |  | 
13 | Cn1nc(NS(C)(=O)=O)c2c(Cl)ccc(-c3ccc(C#CC(C)(C)O)nc3[C@H](Cc3cc(F)cc(F)c3)NC(=O)Cn3nc(C(F)(F)F)c4c3C(F)(F)[C@@H]3C[C@H]43)c21 [Compound 78, N—((S)-1-(3-(4-chloro-1-methyl-3-(methylsulfonamido)-1H-indazol-7-yl)-6-(3-hydroxy-3-methylbut-1-yn-1-yl)pyridin-2-yl)-2-(3,5-difluorophenyl)ethyl)-2-((3b-S,4aR)-5,5-difluoro-3-(trifluoromethyl)-3b,4,4a,5-tetrahydro-1H-cyclopropa[3,4]cyclopenta[1,2-c]pyrazol-1-yl)acetamide] | 98 | 98 | 
14 | Cn1nc(NS(C)(=O)=O)c2c(F)ccc(-c3ccc(C#CC(C)(C)O)nc3[C@H](Cc3cc(F)cc(F)c3)NC(=O)Cn3nc(C(F)F)c4c3C(F)(F)[C@@H]3C[C@H]43)c21 [Compound 75, 2-((3b-S,4aR)-3-(difluoromethyl)-5,5-difluoro-3b,4,4a,5-tetrahydro-1H-cyclopropa[3,4]cyclopenta[1,2-c]pyrazol-1-yl)-N—((S)-2-(3,5-difluorophenyl)-1-(3-(4-fluoro-1-methyl-3-(methylsulfonamido)-1H-indazol-7-yl)-6-(3-hydroxy-3-methylbut-1-yn-1-yl)pyridin-2-yl)ethyl)acetamide] | 92 | 93 | 
15 | COc1ccc(-c2ccc(C#CC(C)(C)O)nc2[C@H](Cc2cc(F)cc(F)c2)NC(=O)Cn2nc(C(F)F)c3c2C(F)(F)[C@@H]2C[C@H]32)c2c1c(NS(C)(=O)=O)nn2C [Compound 141D, 2-((3b-S,4aR)-3-(difluoromethyl)-5,5-difluoro-3b,4,4a,5-tetrahydro-1H-cyclopropa[3,4]cyclopenta[1,2-c]pyrazol-1-yl)-N—((S)-2-(3,5-difluorophenyl)-1-(6-(3-hydroxy-3-methylbut-1-yn-1-yl)-3-(4-methoxy-1-methyl-3-(methylsulfonamido)-1H-indazol-7-yl)pyridin-2-yl)ethyl)acetamide] | 100 | 100 | 
